Data as given in ChEMBL document CHEMBL1201862, “PubChem BioAssay data set” (2004).
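Dose response: 5 concentrations. Exposure: 48 h. Format: 96-well plates. Endpoint: linear interpolation; highest concentration if not reached. GI50 marks 50% less growth.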 Active and inactive are the calls of the source. Rule as the data show it: active = GI50 up to about 1.1 µM and inactive = higher.

Experiments:
Assay in all cases: growth of human tumour cells (NCI), 48 h
A498 = test system: A498
BT-549 = test system: BT-549
COLO 205 = test system: COLO 205
DU-145 = test system: DU-145
EKVX = test system: EKVX
HCC 2998 = test system: HCC 2998
HOP-62 = test system: HOP-62
HOP-92 = test system: HOP-92
K562 = test system: K562
KM12 = test system: KM12
LOX IMVI = test system: LOX IMVI
MCF7 = test system: MCF7
Malme-3M = test system: Malme-3M
NCI-H23 = test system: NCI-H23
OVCAR-3 = test system: OVCAR-3
OVCAR-4 = test system: OVCAR-4
OVCAR-8 = test system: OVCAR-8
PC-3 = test system: PC-3
SK-MEL-2 = test system: SK-MEL-2
SK-OV-3 = test system: SK-OV-3

Measured: GI50

O=C(/C(=C\I)c1ccccc1)c1ccccc1
inactive: A498 16.5 µM | BT-549 16.3 µM | COLO 205 3.63 µM | DU-145 7.16 µM | EKVX 18.3 µM | HCC 2998 3.94 µM | HOP-62 4.19 µM | HOP-92 13.7 µM | K562 3.31 µM | KM12 2.71 µM | LOX IMVI 12.7 µM | MCF7 1.8 µM | Malme-3M 7.31 µM | NCI-H23 9.89 µM | OVCAR-3 2.24 µM | OVCAR-4 6.7 µM | OVCAR-8 4.32 µM | PC-3 2.71 µM | SK-MEL-2 7.8 µM | SK-OV-3 17.1 µM
